Calls of active or inactive are those of the source. How the calls were made is not given here.
Experiments:
Format in all cases: functional
Klebsiella pneumoniae [1] = test: Antimicrobial activity against Klebsiella pneumoniae NCTC 13368 at 750 ug/ml after 24 hrs by cup plate method; details: NCTC 13368, 24 h, read-out: IZ
Staphylococcus aureus [2] = test: Antimicrobial activity against Staphylococcus aureus ATCC 29513 at 1000 ug/ml after 24 hrs by cup plate method; details: ATCC 29513, 24 h, read-out: IZ
Aspergillus niger [3] = test: Antimicrobial activity against Aspergillus niger MTCC 281 at 1000 ug/ml after 72 hrs by cup plate method; details: MTCC 281, 72 h, read-out: IZ
Klebsiella pneumoniae [4] = test: Antimicrobial activity against Klebsiella pneumoniae NCTC 13368 at 1000 ug/ml after 24 hrs by cup plate method; details: NCTC 13368, 24 h, read-out: IZ
Aspergillus oryzae [5] = test: Antimicrobial activity against Aspergillus oryzae MTCC 3567 at 750 ug/ml after 72 hrs by cup plate method; details: MTCC 3567, 72 h, read-out: IZ
Aspergillus flavus [6] = test: Antimicrobial activity against Aspergillus flavus MTCC 1973 at 1000 ug/ml after 72 hrs by cup plate method; details: MTCC 1973, 72 h, read-out: IZ
[7] = Antioxidant activity assessed as metal chelating activity by measuring inhibition of ferrozine-Fe2+ complex formation at 25 to 100 ug/ml
Escherichia coli [8] = test: Antimicrobial activity against Escherichia coli MTCC 723 at 750 ug/ml after 24 hrs by cup plate method; details: MTCC 723, 24 h, read-out: IZ
Aspergillus flavus [9] = test: Antimicrobial activity against Aspergillus flavus MTCC 1973 at 750 ug/ml after 72 hrs by cup plate method; details: MTCC 1973, 72 h, read-out: IZ
Escherichia coli [10] = test: Antimicrobial activity against Escherichia coli MTCC 723 at 1000 ug/ml after 24 hrs by cup plate method; details: MTCC 723, 24 h, read-out: IZ
Pseudomonas aeruginosa [11] = test: Antimicrobial activity against Pseudomonas aeruginosa MTCC 1688 at 750 ug/ml after 24 hrs by cup plate method; details: MTCC 1688, 24 h, read-out: IZ
Aspergillus flavus [12] = test: Antimicrobial activity against Aspergillus flavus MTCC 1973 at 500 ug/ml after 72 hrs by cup plate method; details: MTCC 1973, 72 h, read-out: IZ
Klebsiella pneumoniae [13] = test: Antimicrobial activity against Klebsiella pneumoniae NCTC 13368 at 500 ug/ml after 24 hrs by cup plate method; details: NCTC 13368, 24 h, read-out: IZ
Staphylococcus aureus [14] = test: Antimicrobial activity against Staphylococcus aureus ATCC 29513 at 750 ug/ml after 24 hrs by cup plate method; details: ATCC 29513, 24 h, read-out: IZ
Aspergillus terreus [15] = test: Antimicrobial activity against Aspergillus terreus MTCC 1782 at 750 ug/ml after 72 hrs by cup plate method; details: MTCC 1782, 72 h, read-out: IZ
Aspergillus niger [16] = test: Antimicrobial activity against Aspergillus niger MTCC 281 at 500 ug/ml after 72 hrs by cup plate method; details: MTCC 281, 72 h, read-out: IZ
Aspergillus niger [17] = test: Antimicrobial activity against Aspergillus niger MTCC 281 at 750 ug/ml after 72 hrs by cup plate method; details: MTCC 281, 72 h, read-out: IZ
Aspergillus terreus [18] = test: Antimicrobial activity against Aspergillus terreus MTCC 1782 at 500 ug/ml after 72 hrs by cup plate method; details: MTCC 1782, 72 h, read-out: IZ
Staphylococcus aureus [19] = test: Antimicrobial activity against Staphylococcus aureus ATCC 29513 at 500 ug/ml after 24 hrs by cup plate method; details: ATCC 29513, 24 h, read-out: IZ
Aspergillus terreus [20] = test: Antimicrobial activity against Aspergillus terreus MTCC 1782 at 1000 ug/ml after 72 hrs by cup plate method; details: MTCC 1782, 72 h, read-out: IZ
Escherichia coli [21] = test: Antimicrobial activity against Escherichia coli MTCC 723 at 500 ug/ml after 24 hrs by cup plate method; details: MTCC 723, 24 h, read-out: IZ
Aspergillus oryzae [22] = test: Antimicrobial activity against Aspergillus oryzae MTCC 3567 at 500 ug/ml after 72 hrs by cup plate method; details: MTCC 3567, 72 h, read-out: IZ
Pseudomonas aeruginosa [23] = test: Antimicrobial activity against Pseudomonas aeruginosa MTCC 1688 at 500 ug/ml after 24 hrs by cup plate method; details: MTCC 1688, 24 h, read-out: IZ
Pseudomonas aeruginosa [24] = test: Antimicrobial activity against Pseudomonas aeruginosa MTCC 1688 at 1000 ug/ml after 24 hrs by cup plate method; details: MTCC 1688, 24 h, read-out: IZ
Aspergillus oryzae [25] = test: Antimicrobial activity against Aspergillus oryzae MTCC 3567 at 1000 ug/ml after 72 hrs by cup plate method; details: MTCC 3567, 72 h, read-out: IZ

| Structure (SMILES) | zone of inhibition at 750 µg/mL (Klebsiella pneumoniae [1]) [mm] | zone of inhibition at 1000 µg/mL (Staphylococcus aureus [2]) [mm] | zone of inhibition at 1000 µg/mL (Aspergillus niger [3]) [mm] | zone of inhibition at 1000 µg/mL (Klebsiella pneumoniae [4]) [mm] | zone of inhibition at 750 µg/mL (Aspergillus oryzae [5]) [mm] | zone of inhibition at 1000 µg/mL (Aspergillus flavus [6]) [mm] | Activity [7] | zone of inhibition at 750 µg/mL (Escherichia coli [8]) [mm] | zone of inhibition at 750 µg/mL (Aspergillus flavus [9]) [mm] | zone of inhibition at 1000 µg/mL (Escherichia coli [10]) [mm] | zone of inhibition at 750 µg/mL (Pseudomonas aeruginosa [11]) [mm] | zone of inhibition at 500 µg/mL (Aspergillus flavus [12]) [mm] | zone of inhibition at 500 µg/mL (Klebsiella pneumoniae [13]) [mm] | zone of inhibition at 750 µg/mL (Staphylococcus aureus [14]) [mm] | zone of inhibition at 750 µg/mL (Aspergillus terreus [15]) [mm] | zone of inhibition at 500 µg/mL (Aspergillus niger [16]) [mm] | zone of inhibition at 750 µg/mL (Aspergillus niger [17]) [mm] | zone of inhibition at 500 µg/mL (Aspergillus terreus [18]) [mm] | zone of inhibition at 500 µg/mL (Staphylococcus aureus [19]) [mm] | zone of inhibition at 1000 µg/mL (Aspergillus terreus [20]) [mm] | also measured |
| --- | --- | --- | --- | --- | --- | --- | --- | --- | --- | --- | --- | --- | --- | --- | --- | --- | --- | --- | --- | --- | --- |
| O=c1[nH]cnc2c1C(c1c(-c3ccccc3)[nH]c3ccccc13)C=C(c1ccccc1)O2 (stereo not given) | 10 | 10 | 5 | 10 | 5 | 9 | Active | 6 | 9 | 6 | 4 | 9 | 11 | 10 | 8 | 6 | 6 | 9 | 10 | 8 | zone of inhibition at 500 µg/mL (Escherichia coli [21]): 8 mm; zone of inhibition at 500 µg/mL (Aspergillus oryzae [22]): 5 mm; zone of inhibition at 500 µg/mL (Pseudomonas aeruginosa [23]): 5 mm; zone of inhibition at 1000 µg/mL (Pseudomonas aeruginosa [24]): 4 mm; zone of inhibition at 1000 µg/mL (Aspergillus oryzae [25]): 5 mm |
| Cc1ccc2[nH]c(-c3ccccc3)c(C3C=C(c4ccccc4)OC(N)=C3C#N)c2c1 (stereo not given) | 4 | 5 | 10 | 4 | 4 | 4 | Active | 6 | 2 | 5 | 5 | 2 | 4 | 5 | 5 | 9 | 10 | 6 | 5 | 5 | zone of inhibition at 500 µg/mL (Escherichia coli [21]): 6 mm; zone of inhibition at 500 µg/mL (Aspergillus oryzae [22]): 8 mm; zone of inhibition at 500 µg/mL (Pseudomonas aeruginosa [23]): 6 mm; zone of inhibition at 1000 µg/mL (Pseudomonas aeruginosa [24]): 5 mm; zone of inhibition at 1000 µg/mL (Aspergillus oryzae [25]): 3 mm |
| Nc1n[nH]c2c1C(c1c(-c3ccccc3)[nH]c3ccccc13)C=C(c1ccccc1)O2 (stereo not given) | 9 | 2 | 6 | 8 | 5 | 3 | Active | 9 | 10 | 9 | 12 | 10 | 10 | 2 | 5 | 5 | 5 | 5 | 2 | 5 | zone of inhibition at 500 µg/mL (Escherichia coli [21]): 10 mm; zone of inhibition at 500 µg/mL (Aspergillus oryzae [22]): 6 mm; zone of inhibition at 500 µg/mL (Pseudomonas aeruginosa [23]): 12 mm; zone of inhibition at 1000 µg/mL (Pseudomonas aeruginosa [24]): 12 mm; zone of inhibition at 1000 µg/mL (Aspergillus oryzae [25]): 10 mm |
| Cc1ccc(C2=CC(c3c(-c4ccccc4)[nH]c4ccccc34)c3c(nc4oc(=O)c(C#N)c(N)c4c3N)O2)cc1 (stereo not given) | 11 | 3 | 8 | 10 | 6 | 0 | Active | 8 | 0 | 8 | 5 | 0 | 12 | 5 | 5 | 2 | 2 | 10 | 8 | 3 | zone of inhibition at 500 µg/mL (Escherichia coli [21]): 9 mm; zone of inhibition at 500 µg/mL (Aspergillus oryzae [22]): 6 mm; zone of inhibition at 500 µg/mL (Pseudomonas aeruginosa [23]): 5 mm; zone of inhibition at 1000 µg/mL (Pseudomonas aeruginosa [24]): 9 mm; zone of inhibition at 1000 µg/mL (Aspergillus oryzae [25]): 6 mm |
| Nc1nc(=O)[nH]c2c1C(c1c(-c3ccccc3)[nH]c3ccccc13)C=C(c1ccccc1)O2 (stereo not given) | 10 | 5 | 3 | 10 | 10 | 9 | Active | 8 | 9 | 5 | 12 | 10 | 10 | 10 | 4 | 5 | 5 | 6 | 10 | 3 | zone of inhibition at 500 µg/mL (Escherichia coli [21]): 10 mm; zone of inhibition at 500 µg/mL (Aspergillus oryzae [22]): 10 mm; zone of inhibition at 500 µg/mL (Pseudomonas aeruginosa [23]): 12 mm; zone of inhibition at 1000 µg/mL (Pseudomonas aeruginosa [24]): 13 mm; zone of inhibition at 1000 µg/mL (Aspergillus oryzae [25]): 10 mm |
| Cc1ccc2[nH]c(-c3ccccc3)c(C3C=C(c4ccccc4)Oc4[nH]c(=O)nc(N)c43)c2c1 (stereo not given) | 5 | 11 | 10 | 5 | 8 | 7 | Active | 8 | 8 | 8 | 10 | 8 | 6 | 11 | 8 | 10 | 9 | 8 | 11 | 9 | zone of inhibition at 500 µg/mL (Escherichia coli [21]): 8 mm; zone of inhibition at 500 µg/mL (Aspergillus oryzae [22]): 9 mm; zone of inhibition at 500 µg/mL (Pseudomonas aeruginosa [23]): 10 mm; zone of inhibition at 1000 µg/mL (Pseudomonas aeruginosa [24]): 10 mm; zone of inhibition at 1000 µg/mL (Aspergillus oryzae [25]): 5 mm |

Source: ChEMBL document CHEMBL2346657, “Synthesis of novel 2-amino-4-(5'-substituted 2'-phenyl-1H-indol-3'-yl)-6-aryl-4H-pyran-3-carbonitrile derivatives as antimicrobial and antioxidant agents” (2013)
